Experiments:
[1] = test system: OVCAR-8; assay: NCI60 one-dose screen (10 μM), Ovarian Cancer; type: cell-based; conditions: Homo sapiens; 10 μM; OVCAR-8, Ovarian Cancer; read-out: Growth percent rate
[2] = test system: SN12C; assay: NCI60 one-dose screen (10 μM), Renal Cancer; type: cell-based; conditions: Homo sapiens, 10 μM, Renal Cancer, read-out: Growth percent rate
[3] = test system: SK-MEL-2; assay: NCI60 one-dose screen (10 μM), Melanoma; type: cell-based; conditions: Homo sapiens; 10 μM; SK-MEL-2, Melanoma; read-out: Growth percent rate
[4] = test system: A498; assay: NCI60 one-dose screen (10 μM), Renal Cancer; type: cell-based; conditions: Homo sapiens; 10 μM; A498, Renal Cancer; read-out: Growth percent rate
[5] = test system: HCT-15; assay: NCI60 one-dose screen (10 μM), Colon Cancer; type: cell-based; conditions: Homo sapiens; 10 μM; HCT-15, Colon Cancer; read-out: Growth percent rate
[6] = test system: UACC-257; assay: NCI60 one-dose screen (10 μM), Melanoma; type: cell-based; conditions: Homo sapiens; 10 μM; UACC-257, Melanoma; read-out: Growth percent rate
[7] = test system: SK-MEL-5; assay: NCI60 one-dose screen (10 μM), Melanoma; type: cell-based, human
[8] = test system: K-562; assay: NCI60 one-dose screen (10 μM), Leukemia; type: cell-based; conditions: Homo sapiens, K562; 10 μM; K-562, Leukemia; read-out: Growth percent rate
[9] = test system: M14; assay: NCI60 one-dose screen (10 μM), Melanoma; type: cell-based; conditions: Homo sapiens; 10 μM; M14, Melanoma; read-out: Growth percent rate
[10] = test system: HOP-62; assay: NCI60 one-dose screen (10 μM), Non-small Cell Lung Cancer; type: cell-based; conditions: Homo sapiens; 10 μM; HOP-62, Non-small Cell Lung Cancer; read-out: Growth percent rate
[11] = test system: MDA-MB-435; assay: NCI60 one-dose screen (10 μM), Melanoma; type: cell-based; conditions: Homo sapiens; 10 μM; MDA-MB-435, Melanoma; read-out: Growth percent rate
[12] = test system: NCI-H522; assay: NCI60 one-dose screen (10 μM), Non-small Cell Lung Cancer; type: cell-based; conditions: Homo sapiens; 10 μM; NCI-H522, Non-small Cell Lung Cancer; read-out: Growth percent rate
[13] = test system: CAKI-1; assay: NCI60 one-dose screen (10 μM), Renal Cancer; type: cell-based; conditions: Homo sapiens; 10 μM; CAKI-1, Renal Cancer; read-out: Growth percent rate
[14] = test system: SW-620; assay: NCI60 one-dose screen (10 μM), Colon Cancer; type: cell-based; conditions: Homo sapiens; 10 μM; SW-620, Colon Cancer; read-out: Growth percent rate
[15] = test system: RXF 393; assay: NCI60 one-dose screen (10 μM), Renal Cancer; type: cell-based, human; conditions: Homo sapiens; 10 μM; RXF 393, Renal Cancer; read-out: Growth percent rate
[16] = test system: HS 578T; assay: NCI60 one-dose screen (10 μM), Breast Cancer; type: cell-based; conditions: Homo sapiens; 10 μM; HS 578T, Breast Cancer; read-out: Growth percent rate
[17] = test system: 60 human tumor cell lines (NCI60); assay: NCI60 one-dose screen (10 μM), whole panel; type: cell-based
[18] = test system: COLO 205; assay: NCI60 one-dose screen (10 μM), Colon Cancer; type: cell-based, human; conditions: Homo sapiens; 10 μM; COLO 205, Colon Cancer; read-out: Growth percent rate
[19] = test system: SNB-75; assay: NCI60 one-dose screen (10 μM), CNS Cancer; type: cell-based, human
[20] = test system: NCI-H460; assay: NCI60 one-dose screen (10 μM), Non-small Cell Lung Cancer; type: cell-based; conditions: Homo sapiens; 10 μM; NCI-H460, Non-small Cell Lung Cancer; read-out: Growth percent rate
[21] = test system: SF-268; assay: NCI60 one-dose screen (10 μM), CNS Cancer; type: cell-based; conditions: Homo sapiens; 10 μM; SF-268, CNS Cancer; read-out: Growth percent rate
[22] = test system: A549/ATCC; assay: NCI60 one-dose screen (10 μM), Non-small Cell Lung Cancer; type: cell-based; conditions: Homo sapiens; 10 μM; A549/ATCC, Non-small Cell Lung Cancer; read-out: Growth percent rate
[23] = test system: NCI-H322M; assay: as above; type: cell-based; conditions: Homo sapiens, 10 μM, Non-small Cell Lung Cancer, read-out: Growth percent rate
[24] = test system: 786–0; assay: NCI60 one-dose screen (10 μM), Renal Cancer; type: cell-based; conditions: Homo sapiens; 10 μM; 786-0, Renal Cancer; read-out: Growth percent rate
[25] = test system: HT29; assay: NCI60 one-dose screen (10 μM), Colon Cancer; type: cell-based; conditions: Homo sapiens, HT-29; 10 μM; HT29, Colon Cancer; read-out: Growth percent rate
[26] = test system: HCT-116; assay: NCI60 one-dose screen (10 μM), Colon Cancer; type: cell-based; conditions: Homo sapiens; 10 μM; HCT-116, Colon Cancer; read-out: Growth percent rate
[27] = test system: HCC-2998; assay: NCI60 one-dose screen (10 μM), Colon Cancer; type: cell-based; conditions: Homo sapiens; 10 μM; HCC-2998, Colon Cancer; read-out: Growth percent rate
[28] = test system: MOLT-4; assay: NCI60 one-dose screen (10 μM), Leukemia; type: cell-based, human; conditions: Homo sapiens; 10 μM; MOLT-4, Leukemia; read-out: Growth percent rate
[29] = test system: OVCAR-3; assay: NCI60 one-dose screen (10 μM), Ovarian Cancer; type: cell-based; conditions: Homo sapiens; 10 μM; OVCAR-3, Ovarian Cancer; read-out: Growth percent rate
[30] = test system: DU-145; assay: NCI60 one-dose screen (10 μM), Prostate Cancer; type: cell-based; conditions: Homo sapiens; 10 μM; DU-145, Prostate Cancer; read-out: Growth percent rate
[31] = test system: HL-60(TB); assay: NCI60 one-dose screen (10 μM), Leukemia; type: cell-based; conditions: Homo sapiens; 10 μM; HL-60(TB), Leukemia; read-out: Growth percent rate
[32] = test system: IGROV1; assay: NCI60 one-dose screen (10 μM), Ovarian Cancer; type: cell-based; conditions: Homo sapiens, IGROV-1; 10 μM; IGROV1, Ovarian Cancer; read-out: Growth percent rate
[33] = test system: ACHN; assay: NCI60 one-dose screen (10 μM), Renal Cancer; type: cell-based; conditions: Homo sapiens, 10 μM, Renal Cancer, read-out: Growth percent rate
[34] = test system: SF-539; assay: NCI60 one-dose screen (10 μM), CNS Cancer; type: cell-based, human
[35] = test system: MCF7; assay: NCI60 one-dose screen (10 μM), Breast Cancer; type: cell-based; conditions: Homo sapiens; 10 μM; MCF7, Breast Cancer; read-out: Growth percent rate
[36] = test system: OVCAR-4; assay: NCI60 one-dose screen (10 μM), Ovarian Cancer; type: cell-based; conditions: Homo sapiens; 10 μM; OVCAR-4, Ovarian Cancer; read-out: Growth percent rate
[37] = test system: U251; assay: NCI60 one-dose screen (10 μM), CNS Cancer; type: cell-based; conditions: Homo sapiens, U-251; 10 μM; U251, CNS Cancer; read-out: Growth percent rate
[38] = test system: CCRF-CEM; assay: NCI60 one-dose screen (10 μM), Leukemia; type: cell-based; conditions: Homo sapiens, 10 μM, Leukemia, read-out: Growth percent rate
[39] = test system: NCI-H23; assay: NCI60 one-dose screen (10 μM), Non-small Cell Lung Cancer; type: cell-based; conditions: Homo sapiens; 10 μM; NCI-H23, Non-small Cell Lung Cancer; read-out: Growth percent rate
[40] = test system: SK-MEL-28; assay: NCI60 one-dose screen (10 μM), Melanoma; type: cell-based; conditions: Homo sapiens; 10 μM; SK-MEL-28, Melanoma; read-out: Growth percent rate
[41] = test system: RPMI-8226; assay: NCI60 one-dose screen (10 μM), Leukemia; type: cell-based; conditions: Homo sapiens; 10 μM; RPMI-8226, Leukemia; read-out: Growth percent rate
[42] = test system: EKVX; assay: NCI60 one-dose screen (10 μM), Non-small Cell Lung Cancer; type: cell-based; conditions: Homo sapiens, 10 μM, Non-small Cell Lung Cancer, read-out: Growth percent rate

CCC12C=CCN3CCC4(c5cc(NC(=O)CN6CCN(c7ccc(C(F)(F)F)cc7)CC6)c(OC)cc5N(C)C4C(O)(C(=O)OC)C1OC(C)=O)C32 (stereo not shown) [Compound 17]
activity at 10 µM [1]: 26.3% | activity at 10 µM [2]: -17% | activity at 10 µM [3]: -66.2% | activity at 10 µM [4]: -9.05% | activity at 10 µM [5]: -56.5% | activity at 10 µM [6]: -65.3% | growth percent rate ([7]; 10 μM one-dose, SK-MEL-5 melanoma, negative = lethality): −98.17% | activity at 10 µM ([7]; Homo sapiens, 10 μM, SK-MEL-5, Melanoma, read-out: Growth percent rate): -98.2% | activity at 10 µM [8]: 11.4% | activity at 10 µM [9]: -31.1% | activity at 10 µM [10]: -38.8% | activity at 10 µM [11]: -79.8% | activity at 10 µM [12]: -24.4% | activity at 10 µM [13]: 10.8% | activity at 10 µM [14]: 1.45% | activity at 10 µM [15]: -36.5% | activity at 10 µM [16]: -3.36% | antiproliferative effect (in words) ([17]; 10 μM one-dose, NCI60): highly effective in several types of cancer | activity at 10 µM ([17]; 10 μM, mean over 60 human cancer cell lines, read-out: Growth percent rate, Mean): -24.7% | activity at 10 µM [18]: -74.5% | growth percent rate ([19]; 10 μM one-dose, SNB-75 CNS cancer, negative = lethality): < −80% | activity at 10 µM ([19]; Homo sapiens, 10 μM, SNB-75, CNS Cancer, read-out: Growth percent rate): -87.6% | activity at 10 µM [20]: 9.27% | activity at 10 µM [21]: -6.14% | activity at 10 µM [22]: 20.3% | activity at 10 µM [23]: 39.1% | activity at 10 µM [24]: 24.8% | activity at 10 µM [25]: -68.8% | activity at 10 µM [26]: 0.31% | activity at 10 µM [27]: -69.9% | activity at 10 µM [28]: 8.66% | activity at 10 µM [29]: -48% | activity at 10 µM [30]: 24.1% | activity at 10 µM [31]: 1.98% | activity at 10 µM [32]: 12.7% | activity at 10 µM [33]: 3.15% | growth percent rate ([34]; 10 μM one-dose, SF-539 CNS cancer, negative = lethality): < −80% | activity at 10 µM ([34]; Homo sapiens, 10 μM, SF-539, CNS Cancer, read-out: Growth percent rate): -83.4% | activity at 10 µM [35]: 0.95% | activity at 10 µM [36]: 20.4% | activity at 10 µM [37]: 7.24% | activity at 10 µM [38]: -7.07% | activity at 10 µM [39]: 15.2% | activity at 10 µM [40]: -67.6% | activity at 10 µM [41]: -14.1% | activity at 10 µM [42]: 21.3%

Reference: paper PMC11277489, “Novel Piperazine Derivatives of Vindoline as Anticancer Agents” (International Journal of Molecular Sciences, 2024)
